Data taken from PubChem BioAssay AID1963839 (Molecular Pharmacology Branch, DTP, NCI, 2024).

System: 817829-284-R-J1-PDC complex spheroid viability
Test: Anticancer human tumor 817829-284-R-J1-PDC patient-derived colon adenocarcinoma cell line growth inhibition [POLQ]
Conditions: for IC50: curve of first compound; for viability, T/C: stronger effect = lower value
Method in brief: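 Three-cell-type spheroids modelling solid tumor plus stroma served as the readout system; POL inhibitors were tested individually and in combination, concentration ranges set by clinical Cmax where known.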

[1] = second compound 0.0316 µM, first compound 0.00316 µM
[2] = second compound 0.0316 µM, first compound 0.01 µM
[3] = second compound 0.0316 µM, first compound 0.0316 µM
[4] = second compound 0.0316 µM, first compound 0.1 µM
[5] = second compound 0.1 µM, first compound 0.00316 µM
[6] = second compound 0.1 µM, first compound 0.01 µM
[7] = second compound 0.1 µM, first compound 0.0316 µM
[8] = second compound 0.1 µM, first compound 0.1 µM
[9] = second compound 0.316 µM, first compound 0.00316 µM
[10] = second compound 0.316 µM, first compound 0.01 µM
[11] = second compound 0.316 µM, first compound 0.0316 µM
[12] = second compound 0.316 µM, first compound 0.1 µM
[13] = second compound 1 µM, first compound 0.00316 µM
[14] = second compound 1 µM, first compound 0.01 µM
[15] = second compound 1 µM, first compound 0.0316 µM
[16] = second compound 1 µM, first compound 0.1 µM
[17] = second compound 3.16 µM, first compound 0.00316 µM
[18] = second compound 3.16 µM, first compound 0.01 µM
[19] = second compound 3.16 µM, first compound 0.0316 µM
[20] = second compound 3.16 µM, first compound 0.1 µM
[21] = second compound 10 µM, first compound 0.00316 µM
[22] = second compound 10 µM, first compound 0.01 µM
[23] = second compound 10 µM, first compound 0.0316 µM
[24] = second compound 10 µM, first compound 0.1 µM
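Also: spheroids exposed to compounds for 7 days.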
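For viability, T/C in this document: 100% = DMSO vehicle-treated spheroids.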

With COc1cccc(OCCCN)c1-c1cc(Nc2cnc(C#N)cn2)n[nH]1 + COC1C(OC(N)=O)C(O)C(Oc2ccc3c(O)c(NC(=O)c4ccc(O)c(CC=C(C)C)c4)c(=O)oc3c2C)OC1(C)C the IC50 (second compound 0.0316 µM) was < 3.16 nM, the IC50 (second compound 0.1 µM) was < 3.16 nM and the IC50 (second compound 0.316 µM) was < 3.16 nM. For the same compound, the IC50 (second compound 1 µM) was < 3.16 nM, the IC50 (second compound 3.16 µM) was < 3.16 nM and the IC50 (second compound 10 µM) was < 3.16 nM. For the same compound, the viability, T/C [1] was 29.9%, the viability, T/C [2] was 8.3% and the viability, T/C [3] was 5.67%. For the same compound, the viability, T/C [4] was 5.85%, the viability, T/C (second compound 0.0316 µM, first compound 0.316 µM) was 4.68% and the viability, T/C (second compound 0.0316 µM, first compound 1 µM) was 3.39%. It also gave a viability, T/C [5] of 26%, a viability, T/C [6] of 11.2% and a viability, T/C [7] of 6.67%. For the same compound, the viability, T/C [8] was 5.76%, the viability, T/C (second compound 0.1 µM, first compound 0.316 µM) was 5.35% and the viability, T/C (second compound 0.1 µM, first compound 1 µM) was 3.07%. The viability, T/C [9] was 29.5%, the viability, T/C [10] was 8.79% and the viability, T/C [11] was 6.28%. For the same compound, the viability, T/C [12] was 5.55%, the viability, T/C (second compound 0.316 µM, first compound 0.316 µM) was 4.77% and the viability, T/C (second compound 0.316 µM, first compound 1 µM) was 3.42%. For the same compound, the viability, T/C [13] was 39.1%, the viability, T/C [14] was 8.54% and the viability, T/C [15] was 6.62%. The viability, T/C [16] was 4.99%, the viability, T/C (second compound 1 µM, first compound 0.316 µM) was 4.97% and the viability, T/C (second compound 1 µM, first compound 1 µM) was 3.65%. For the same compound, the viability, T/C [17] was 44.4%, the viability, T/C [18] was 8.05% and the viability, T/C [19] was 5.78%. For the same compound, the viability, T/C [20] was 4.98%, the viability, T/C (second compound 3.16 µM, first compound 0.316 µM) was 4.52% and the viability, T/C (second compound 3.16 µM, first compound 1 µM) was 4.11%. For the same compound, the viability, T/C [21] was 26.2%, the viability, T/C [22] was 8.47% and the viability, T/C [23] was 6.63%. For the same compound, the viability, T/C [24] was 5.63%, the viability, T/C (second compound 10 µM, first compound 0.316 µM) was 4.76% and the viability, T/C (second compound 10 µM, first compound 1 µM) was 4.08%.

Work on Cn1ncnc1[C@H]1c2n[nH]c(=O)c3cc(F)cc(c23)N[C@@H]1c1ccc(F)cc1 + COC1C(OC(N)=O)C(O)C(Oc2ccc3c(O)c(NC(=O)c4ccc(O)c(CC=C(C)C)c4)c(=O)oc3c2C)OC1(C)C yielded an IC50 (second compound 0.0316 µM) of 31 nM, an IC50 (second compound 0.1 µM) of 4.86 nM and an IC50 (second compound 0.316 µM) of 19.8 nM. For the same compound, the IC50 (second compound 1 µM) was 24 nM, the IC50 (second compound 3.16 µM) was 10.2 nM and the IC50 (second compound 10 µM) was 31 nM. For the same compound, the viability, T/C (second compound 0.0316 µM, first compound 0.000316 µM) was 107%, the viability, T/C (second compound 0.0316 µM, first compound 0.001 µM) was 63.2% and the viability, T/C [1] was 72.3%. For the same compound, the viability, T/C [2] was 62.6%, the viability, T/C [3] was 55.5% and the viability, T/C [4] was 36.5%. The viability, T/C (second compound 0.1 µM, first compound 0.000316 µM) was 103%, the viability, T/C (second compound 0.1 µM, first compound 0.001 µM) was 109% and the viability, T/C [5] was 52.9%. The viability, T/C [6] was 60.4%, the viability, T/C [7] was 39.9% and the viability, T/C [8] was 35.4%. For the same compound, the viability, T/C (second compound 0.316 µM, first compound 0.000316 µM) was 104%, the viability, T/C (second compound 0.316 µM, first compound 0.001 µM) was 94.9% and the viability, T/C [9] was 74.4%. It also gave a viability, T/C [10] of 65.3%, a viability, T/C [11] of 38% and a viability, T/C [12] of 36.2%. The viability, T/C (second compound 1 µM, first compound 0.000316 µM) was 94.9%, the viability, T/C (second compound 1 µM, first compound 0.001 µM) was 107% and the viability, T/C [13] was 85.4%. It also gave a viability, T/C [14] of 65%, a viability, T/C [15] of 47.8% and a viability, T/C [16] of 31.8%. For the same compound, the viability, T/C (second compound 3.16 µM, first compound 0.000316 µM) was 86.8%, the viability, T/C (second compound 3.16 µM, first compound 0.001 µM) was 102% and the viability, T/C [17] was 97.7%. It also gave a viability, T/C [18] of 50.1%, a viability, T/C [19] of 49.9% and a viability, T/C [20] of 40.3%. For the same compound, the viability, T/C (second compound 10 µM, first compound 0.000316 µM) was 137%, the viability, T/C (second compound 10 µM, first compound 0.001 µM) was 124% and the viability, T/C [21] was 69.8%. For the same compound, the viability, T/C [22] was 71.6%, the viability, T/C [23] was 67.2% and the viability, T/C [24] was 22.3%.
